Reference: patent US8952024B2, “Herbicidal pyrimidone derivatives” (E I du Pont de Nemours and Company, priority 2009, dated 2015)
Read-outs that look alike come from different tables or passages of the source.

Legend:
Experiment in all cases: Test B pre-/postemergence plant response
Format in all cases: in vivo
[1] = tested on: johnsongrass (Sorghum halepense); conditions: for pest or weed control at 16 g/ha: 16 g ai/ha; for pest or weed control at 16 g/ha / pest or weed control at 31 g/ha / pest or weed control at 62 g/ha: read-out: Plant response rating, Johnsongrass; for pest or weed control at 31 g/ha: 31 g ai/ha; for pest or weed control at 62 g/ha: 62 g ai/ha
Outline: (§1)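 Plants treated either at seeding (loam/sand soil) or postemergence at 2 to 18 cm height, using a surfactant-containing non-phytotoxic solvent formulation. Evaluation was visual after 13 to 15 days, 0 to 100 scale relative to controls.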

[2] = tested on: goosegrass (Eleusine indica); conditions: for pest or weed control at 16 g/ha: 16 g ai/ha; for pest or weed control at 16 g/ha / pest or weed control at 31 g/ha / pest or weed control at 62 g/ha: read-out: Plant response rating, Goosegrass; for pest or weed control at 31 g/ha: 31 g ai/ha; for pest or weed control at 62 g/ha: 62 g ai/ha
Outline: as §1

[3] = tested on: woolly cupgrass (Eriochloa villosa); conditions: for pest or weed control at 16 g/ha: 16 g ai/ha; for pest or weed control at 16 g/ha / pest or weed control at 31 g/ha / pest or weed control at 62 g/ha: read-out: Plant response rating, Cupgrass, Woolly; for pest or weed control at 31 g/ha: 31 g ai/ha; for pest or weed control at 62 g/ha: 62 g ai/ha
Outline: as §1

[4] = tested on: morningglory (Ipomoea coccinea); conditions: for pest or weed control at 16 g/ha: 16 g ai/ha; for pest or weed control at 16 g/ha / pest or weed control at 31 g/ha / pest or weed control at 62 g/ha: read-out: Plant response rating, Morningglory; for pest or weed control at 31 g/ha: 31 g ai/ha; for pest or weed control at 62 g/ha: 62 g ai/ha
Outline: as §1

[5] = tested on: giant foxtail (Setaria faberii)
Outline: as §1

[6] = Preemergence, 125 g ai/ha, 0 to 100 scale
[7] = Sorghum halepense, pre-emergence, Preemergence, scale 0 to 100 (0 no effect, 100 complete control)
[8] = Eleusine indica, pre-emergence, Preemergence, scale 0 to 100 (0 no effect, 100 complete control)
[9] = Eriochloa villosa, pre-emergence, Preemergence, scale 0 to 100 (0 no effect, 100 complete control)
[10] = Ipomoea, pre-emergence, Preemergence, scale 0 to 100 (0 no effect, 100 complete control)

O=C1CCCC(O)=C1C(=O)c1cnc(-c2ccccc2)n(-c2ccccc2)c1=O [Compound 2, 5-[(2-hydroxy-6-oxo-1-cyclohexen-1-yl)carbonyl]-2,3-diphenyl-4(3H)-pyrimidinone]
Johnsongrass plant response rating [1, 6]: 80 | pest or weed control at 16 g/ha ([1]; Sorghum halepense, post-emergence, Postemergence, 0 to 100 scale): 75% | pest or weed control at 31 g/ha ([1]; Sorghum halepense, post-emergence, Postemergence, scale 0 to 100 (0 no effect, 100 complete control)): 85% | pest or weed control at 62 g/ha ([1]; Sorghum halepense, post-emergence, Postemergence, scale 0 (no effect) to 100 (complete control), 13 to 15 days): 90% | pest or weed control at 125 g/ha ([1]; Sorghum halepense, post-emergence, Postemergence, 125 g ai/ha, visual rating after 13 to 15 days, scale 0 (no effect) to 100 (complete control)): 98% | pest or weed control at 16 g/ha [1, 7]: 0% | pest or weed control at 31 g/ha [1, 7]: 60% | pest or weed control at 62 g/ha ([1]; Sorghum halepense, pre-emergence, Preemergence, scale 0 to 100, 0 no effect, 100 complete control): 65% | pest or weed control at 16 g/ha ([2]; Eleusine indica, post-emergence, Postemergence, 0 to 100 scale): 80% | pest or weed control at 31 g/ha ([2]; Eleusine indica, post-emergence, Postemergence, scale 0 to 100 (0 no effect, 100 complete control)): 80% | pest or weed control at 62 g/ha ([2]; Eleusine indica, post-emergence, Postemergence, scale 0 (no effect) to 100 (complete control), 13 to 15 days): 90% | pest or weed control at 125 g/ha ([2]; Eleusine indica, post-emergence, Postemergence, 125 g ai/ha, visual rating after 13 to 15 days, scale 0 (no effect) to 100 (complete control)): 95% | pest or weed control at 16 g/ha [2, 8]: 0% | pest or weed control at 31 g/ha [2, 8]: 85% | pest or weed control at 62 g/ha ([2]; Eleusine indica, pre-emergence, Preemergence, scale 0 to 100, 0 no effect, 100 complete control): 100% | Goosegrass plant response rating [2, 6]: 100 | pest or weed control at 16 g/ha ([3]; Eriochloa villosa, post-emergence, Postemergence, 0 to 100 scale): 75% | pest or weed control at 31 g/ha ([3]; Eriochloa villosa, post-emergence, Postemergence, scale 0 to 100 (0 no effect, 100 complete control)): 75% | pest or weed control at 62 g/ha ([3]; Eriochloa villosa, post-emergence, Postemergence, scale 0 (no effect) to 100 (complete control), 13 to 15 days): 80% | pest or weed control at 125 g/ha ([3]; Eriochloa villosa, post-emergence, Postemergence, 125 g ai/ha, visual rating after 13 to 15 days, scale 0 (no effect) to 100 (complete control)): 85% | pest or weed control at 16 g/ha [3, 9]: 0% | pest or weed control at 31 g/ha [3, 9]: 0% | pest or weed control at 62 g/ha ([3]; Eriochloa villosa, pre-emergence, Preemergence, scale 0 to 100, 0 no effect, 100 complete control): 15% | Cupgrass, Woolly plant response rating [3, 6]: 20 | pest or weed control at 16 g/ha ([4]; Ipomoea, post-emergence, Postemergence, 0 to 100 scale): 55% | pest or weed control at 31 g/ha ([4]; Ipomoea, post-emergence, Postemergence, scale 0 to 100 (0 no effect, 100 complete control)): 70% | pest or weed control at 62 g/ha ([4]; Ipomoea, post-emergence, Postemergence, scale 0 (no effect) to 100 (complete control), 13 to 15 days): 80% | pest or weed control at 125 g/ha ([4]; Ipomoea, post-emergence, Postemergence, 125 g ai/ha, visual rating after 13 to 15 days, scale 0 (no effect) to 100 (complete control)): 95% | pest or weed control at 16 g/ha [4, 10]: 0% | pest or weed control at 31 g/ha [4, 10]: 0% | pest or weed control at 62 g/ha ([4]; Ipomoea, pre-emergence, Preemergence, scale 0 to 100, 0 no effect, 100 complete control): 20% | Morningglory plant response rating [4, 6]: 75 | Foxtail, Giant plant response rating [5, 6]: 70 | pest or weed control at 16 g/ha ([5]; Setaria faberi, post-emergence, 16 g ai/ha, Postemergence, 0 to 100 scale, read-out: Plant response rating, Foxtail, Giant): 70% | pest or weed control at 31 g/ha ([5]; Setaria faberi, post-emergence, Postemergence, 31 g ai/ha, scale 0 to 100 (0 no effect, 100 complete control), read-out: Plant response rating, Foxtail, Giant): 85%
